Measurements published in PMC12802350, “Opposite effects of spermidine and GC7 in cell culture are dictated by distinct molecular targets” (Biochemical Journal, 2025).
pKi: −log10 of the molar value.

Legend:
[1] = molecular target: T1, bovine serum amine oxidase (BSAO) (Bos taurus, UniProt Q29437); assay: spectrophotometric benzaldehyde formation at […] nm; assay type: biochemical; parameters: BSAO purified from bovine blood; also decomplemented FBS
T1 sequence (Q29437 17-762): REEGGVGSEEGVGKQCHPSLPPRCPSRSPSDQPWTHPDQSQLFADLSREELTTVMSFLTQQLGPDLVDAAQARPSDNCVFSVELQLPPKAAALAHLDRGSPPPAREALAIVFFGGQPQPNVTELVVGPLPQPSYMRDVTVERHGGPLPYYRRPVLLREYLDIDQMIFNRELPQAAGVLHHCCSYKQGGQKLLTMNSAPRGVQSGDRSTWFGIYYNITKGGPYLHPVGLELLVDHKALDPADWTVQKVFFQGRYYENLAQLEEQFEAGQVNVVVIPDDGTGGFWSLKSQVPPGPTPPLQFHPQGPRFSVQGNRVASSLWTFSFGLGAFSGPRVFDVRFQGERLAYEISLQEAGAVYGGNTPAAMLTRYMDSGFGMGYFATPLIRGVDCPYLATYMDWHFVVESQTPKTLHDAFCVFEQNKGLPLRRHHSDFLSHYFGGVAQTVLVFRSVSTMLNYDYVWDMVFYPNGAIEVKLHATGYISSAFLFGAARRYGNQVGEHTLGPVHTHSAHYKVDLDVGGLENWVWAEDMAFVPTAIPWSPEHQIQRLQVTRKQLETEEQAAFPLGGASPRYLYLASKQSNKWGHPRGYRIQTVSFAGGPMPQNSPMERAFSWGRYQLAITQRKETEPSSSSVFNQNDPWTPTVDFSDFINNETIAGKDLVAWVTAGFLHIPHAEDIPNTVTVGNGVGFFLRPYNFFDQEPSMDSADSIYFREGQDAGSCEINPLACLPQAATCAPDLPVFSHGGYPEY

[2] = molecular target: T1, bovine serum amine oxidase (BSAO); assay: DCHBS/AAP peroxide-coupled kinetic assay with spermidine as substrate, Morrison tight-binding fit; assay type: biochemical; parameters: BSAO purified from bovine blood

| pKi [2] | Structure (SMILES) | spectrophotometric benzaldehyde formation at 250 nm [1] |
| --- | --- | --- |
|  | NCc1ccccc1 [benzylamine] | BSAO and decomplemented FBS activities were determined spectrophotometrically as the amount of benzaldehyde formed per min (μmol/min) from benzylamine |
| 6.51 | N=C(N)NCCCCCCCN [GC7] |  |
